Values quoted from earlier work as cited in patent US20120101005A1, “METHODS FOR PREDICTING THE TOXICITY OF A CHEMICAL” (GE HEALTHCARE UK LIMITED, priority 2009, published 2012).
Where two headings read alike, the source gives them in different places.

Columns and labels:
EGF receptor = EGF receptor (Homo sapiens, UniProt P00533)
rat PC12 cells = settings: for NGF-induced neuronal differentiation of PC12 cells: monitored by generation of neurite processes
[1] = target: p140 trk tyrosine kinase NGF-receptor (Rattus norvegicus, UniProt P35739); settings: read-out: IC50, p140 trk NGF-receptor autophosphorylation
p140 trk tyrosine kinase NGF-receptor (Rattus norvegicus, UniProt P35739), sequence (P35739 33-799): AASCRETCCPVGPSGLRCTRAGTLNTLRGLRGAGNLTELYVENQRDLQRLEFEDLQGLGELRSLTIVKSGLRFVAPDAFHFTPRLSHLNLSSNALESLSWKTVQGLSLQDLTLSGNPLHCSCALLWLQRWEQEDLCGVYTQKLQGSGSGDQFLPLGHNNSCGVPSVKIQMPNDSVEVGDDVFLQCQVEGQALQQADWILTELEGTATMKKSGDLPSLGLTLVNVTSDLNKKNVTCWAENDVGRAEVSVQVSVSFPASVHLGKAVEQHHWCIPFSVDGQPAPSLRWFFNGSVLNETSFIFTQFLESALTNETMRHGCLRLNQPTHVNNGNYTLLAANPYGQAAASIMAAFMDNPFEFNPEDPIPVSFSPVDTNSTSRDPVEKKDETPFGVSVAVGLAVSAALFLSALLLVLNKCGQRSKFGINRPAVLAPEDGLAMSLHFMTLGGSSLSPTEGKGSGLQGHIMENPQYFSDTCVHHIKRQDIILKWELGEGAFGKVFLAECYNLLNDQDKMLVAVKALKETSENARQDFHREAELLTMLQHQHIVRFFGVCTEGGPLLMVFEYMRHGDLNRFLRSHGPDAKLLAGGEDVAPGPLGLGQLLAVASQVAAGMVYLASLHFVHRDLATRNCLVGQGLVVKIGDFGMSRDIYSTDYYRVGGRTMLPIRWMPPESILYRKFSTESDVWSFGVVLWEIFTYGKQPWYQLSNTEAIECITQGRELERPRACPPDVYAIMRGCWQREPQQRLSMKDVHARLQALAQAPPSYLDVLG

[2] = system: common neurotrophin receptor p75NTR; settings: compound interacts with NGF
[3] = system: p140 trk tyrosine kinase NGF-receptor; settings: compound interacts with NGF
ES cells [4] = settings: co-treatment with retinoic acid
[5] = system: human embryonic stem cells
ES cells [6] = system: ES cells
[7] = system: 3T3-F442A, 3T3-L1, Ob1771 and embryonic stem cells
[8] = system: C3H10T1/2 mesenchymal stem cells; settings: induced with 200 nM insulin, 1 μM BRL49653 and LGD1069; lipogenesis, oil red O-staining, AP2 and LPL expression
[9] = 1 μM on the first day of the differentiation process

EGF receptor, sequence (P00533 25-1210): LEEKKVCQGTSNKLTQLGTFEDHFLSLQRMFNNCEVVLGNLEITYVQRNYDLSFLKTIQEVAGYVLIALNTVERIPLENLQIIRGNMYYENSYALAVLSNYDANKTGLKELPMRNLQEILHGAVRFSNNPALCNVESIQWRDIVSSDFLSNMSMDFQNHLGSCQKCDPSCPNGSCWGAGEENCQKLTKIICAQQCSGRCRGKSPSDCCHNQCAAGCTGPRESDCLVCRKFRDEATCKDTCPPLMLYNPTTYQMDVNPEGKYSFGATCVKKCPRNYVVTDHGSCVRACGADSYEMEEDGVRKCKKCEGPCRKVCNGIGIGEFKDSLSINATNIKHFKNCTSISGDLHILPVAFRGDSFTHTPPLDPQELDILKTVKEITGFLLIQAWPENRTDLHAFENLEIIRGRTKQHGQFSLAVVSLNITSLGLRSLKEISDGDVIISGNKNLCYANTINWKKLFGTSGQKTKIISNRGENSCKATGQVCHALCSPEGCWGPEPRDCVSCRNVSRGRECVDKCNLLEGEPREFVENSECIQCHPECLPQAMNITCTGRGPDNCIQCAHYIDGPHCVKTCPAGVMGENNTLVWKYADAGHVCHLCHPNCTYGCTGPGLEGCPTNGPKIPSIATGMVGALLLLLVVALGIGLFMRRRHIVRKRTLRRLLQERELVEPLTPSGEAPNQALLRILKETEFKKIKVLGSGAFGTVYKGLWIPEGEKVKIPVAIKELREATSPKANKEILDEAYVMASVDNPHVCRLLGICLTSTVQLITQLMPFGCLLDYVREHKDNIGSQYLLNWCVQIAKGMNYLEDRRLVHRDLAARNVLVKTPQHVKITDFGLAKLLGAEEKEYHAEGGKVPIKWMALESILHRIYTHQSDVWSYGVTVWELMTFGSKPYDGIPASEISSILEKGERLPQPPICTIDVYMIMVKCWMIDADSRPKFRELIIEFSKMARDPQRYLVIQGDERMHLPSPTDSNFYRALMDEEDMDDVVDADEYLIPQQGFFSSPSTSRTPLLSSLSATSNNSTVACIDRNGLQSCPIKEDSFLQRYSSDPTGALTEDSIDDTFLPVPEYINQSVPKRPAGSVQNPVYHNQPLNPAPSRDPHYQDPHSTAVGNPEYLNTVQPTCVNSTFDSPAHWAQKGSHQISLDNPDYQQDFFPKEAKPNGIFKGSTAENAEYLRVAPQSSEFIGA

Compound: CC(C)(C)c1cc(/C=C(\C#N)C(N)=S)cc(C(C)(C)C)c1O [AG-879]
- inhibition of PDGF receptor phosphorylation (PDGF receptor): no inhibition
- inhibition of EGF receptor phosphorylation (EGF receptor): no inhibition
- NGF-induced neurite outgrowth in PC12 cells (rat PC12 cells): inhibits NGF-induced neurite outgrowth
- IC50 [1]: 10 µM

Compound: Nc1ncnc2c1ncn2C(C=O)OC(C=O)CO (centres unmarked) [AdOx, Adenosine dialdehyde]
- expression levels of the neuronal markers β-tubulin, NeuroD1 and mash1 (P19 EC cells; [9]): decreased
- number of neurites observed (P19 EC cells; [9]): decreased

Compound: CCCCCCCCCC(=O)N[C@H](CN1CCOCC1)[C@H](O)c1ccccc1 [D-PDMP, D-theo-1-phenyl-2-decanoylamino-3-morphlino-1-propanol]
- death of P19-derived neurons (P19 EC cells): causing the death of P19-derived neurons
- cell death of undifferentiated P19 EC cells (P19 EC cells; 50 μM): without any indication of cell death
- proliferation of the undifferentiated P19 EC cells (P19 EC cells; 50 μM, added 3 days prior to retinoic acid and maintained): reduced
- neurite elongation (P19 EC cells; 50 μM, neurites present but failed to develop correctly): abolished neurite elongation
- neurite outgrowth (P19 EC cells; P19 EC in-vitro neuronal differentiation model): inhibited neurite outgrowth

Compound: Cc1cc(S(C)(=O)=O)c(S(C)(=O)=O)cc1C(=O)NC(=N)N [EMD87580]
- cardiomyocyte differentiation of mouse P19 embryonic carcinoma cells (mouse P19 cell; during DMSO induction): inhibit the cardiomyocyte differentiation

Compound: COC(=O)[C@]1(O)C[C@H]2O[C@]1(C)n1c3ccc(O)cc3c3c4c(c5c6ccccc6n2c5c31)C(=O)NC4=O [Indocarbazostatin C]
- NGF-induced neuronal differentiation of PC12 cells (rat PC12 cells): inhibitors

Compound: COC(=O)[C@]1(O)C[C@H]2O[C@]1(C)n1c3ccc(O)c(N)c3c3c4c(c5c6ccccc6n2c5c31)C(=O)NC4=O [Indocarbazostatin D]
- NGF-induced neuronal differentiation of PC12 cells (rat PC12 cells): inhibitors

Compound: COC(=O)[C@@]1(O)C[C@H]2O[C@]1(C)n1c3ccccc3c3c4c(c5c6ccccc6n2c5c31)C(=O)NC4 [K-252a]
- NGF-induced neuronal differentiation of PC12 cells (rat PC12 cells): effective inhibitors

Compound: C[C@]12O[C@H](C[C@]1(O)C(=O)O)n1c3ccccc3c3c4c(c5c6ccccc6n2c5c31)CNC4=O [K-252b]
- NGF-induced neuronal differentiation of PC12 cells (rat PC12 cells): effective inhibitors

Compound: Cn1c2ccc(NC(=O)c3ccccc3)cc2c(=O)n2nc(C(=O)O)cc12 [PD90780, 7-(Benzolylamino)-4,9-Dihydro-4-Methyl-9-Oxo-Pyrazolo[5,1-b]Quinazoline-2-Carboxlic Acid]
- binding of NGF to p75NTR [2]: preventing its binding
- NGF-induced neuronal differentiation of PC12 cells (rat PC12 cells): abolishes
- binding of NGF to p140 trk tyrosine kinase NGF-receptor [3]: preventing its binding

Compound: COc1cccc(-c2cc(=O)c3ccccc3o2)c1N [PD98059, 2″-Amino-3″-Methoxyflavone]
- adipocyte formation from ES cells (ES cells [4]): prevents adipocyte formation
- expression of adipogenic markers in ES cells (ES cells [4]): prevented
- adipocyte formation from ES cells (ES cells [4]; listed as PD68059): prevented
- concentration at which reported as inhibitor of human embryonic stem cell cardiomyocyte differentiation [5]: 5 to 25 µM
- NGF-induced neurite formation in PC12 cells (rat PC12 cells): completely blocks
- cell viability of PC12 cells (rat PC12 cells): without affecting cell viability
- differentiation of ES cells into neuron or cardiomyocytes (ES cells [6]): no effect

Compound: Cn1cc(C2=C(c3ccc(Cl)cc3Cl)C(=O)NC2=O)c2ccccc21 [SB216763]
- concentration at which reported as inhibitor of human embryonic stem cell cardiomyocyte differentiation [5]: 10 to 25 µM

Compound: C[S+]([O-])c1ccc(-c2nc(-c3ccc(F)cc3)c(-c3ccncc3)[nH]2)cc1 (centres unmarked) [SB 203580, 4-(4″-fluorophenyl)-2-(4″-methylsulfinylphenyl)-5-(4″-pyridyl) imidazole]
- effect on the activities of JNKs (JNKs): no significant effect
- effect on the activities of ERKs (ERKs): no significant effect
- number of cardiomyocytes from human embryonic stem cells ([5]; 15 μM): dramatically reduces the number of cardiomyocytes
- cardiomyocyte differentiation of human embryonic stem cells ([5]; 25 μM): completely blocked
- generation of cardiomyocytes from human embryonic stem cells ([5]; 1-10 μM): enhances the generation of cardiomyocytes
- P19 cell differentiation into cardiomyocytes (mouse P19 cell; 10 μM, cardiac-actin by immuno-histochemistry, cardiac-actin and atrial natriuretic peptide by RT-PCR): prevent mouse P19 cell differentiation into cardiomycocytes

Compound: CC(C)(C)NC(=O)[C@@H]1CN(Cc2cccnc2)CCN1C[C@@H](O)C[C@@H](Cc1ccccc1)C(=O)N[C@H]1c2ccccc2C[C@H]1O [indinavir]
- adipocyte differentiation, by cell model [7]: inhibited the differentiation of only 3T3-L1 and 3T3-F442A cells

Compound: Cc1cccc(C)c1OCC(=O)N[C@@H](Cc1ccccc1)[C@@H](O)C[C@H](Cc1ccccc1)NC(=O)[C@H](C(C)C)N1CCCNC1=O [lopinavir]
- adipocyte differentiation, by cell model [7]: inhibited adipocyte differentiation in all cells tested

Compound: Cc1c(O)cccc1C(=O)N[C@@H](CSc1ccccc1)[C@H](O)CN1C[C@H]2CCCC[C@H]2C[C@H]1C(=O)NC(C)(C)C [nelfinavir]
- adipocyte differentiation, by cell model [7]: inhibited adipocyte differentiation in all cells tested
- adipocyte differentiation of mesenchymal stem cells [8]: reduced the adipocyte differentiation

Compound: CC(C)c1nc(CN(C)C(=O)N[C@H](C(=O)N[C@@H](Cc2ccccc2)C[C@H](O)[C@H](Cc2ccccc2)NC(=O)OCc2cncs2)C(C)C)cs1 [ritonavir]
- adipocyte differentiation, by cell model [7]: inhibited the differentiation of only 3T3-L1 and 3T3-F442A cells
- adipocyte differentiation of mesenchymal stem cells [8]: reduced the adipocyte differentiation

Compound: CC(C)(C)NC(=O)[C@@H]1C[C@@H]2CCCC[C@@H]2CN1C[C@@H](O)[C@H](Cc1ccccc1)NC(=O)[C@H](CC(N)=O)NC(=O)c1ccc2ccccc2n1 [saquinavir]
- adipocyte differentiation, by cell model [7]: inhibited the differentiation of only 3T3-L1 and 3T3-F442A cells
- adipocyte differentiation of mesenchymal stem cells [8]: reduced the adipocyte differentiation
